Calls of active or inactive are those of the source. No cut-off for these calls is given here.
Tests used:
[1] = target: T1, Adenosine receptor A1 (Homo sapiens) (UniProt P30542); test: Effect on association binding rate constant of [3H]-NECA to human adenosine A1 receptor expressed in CHO cells at 1 uM after 45 mins by scintillation spectrometry analysis; assay type: cell-based
T1 sequence (whole entry): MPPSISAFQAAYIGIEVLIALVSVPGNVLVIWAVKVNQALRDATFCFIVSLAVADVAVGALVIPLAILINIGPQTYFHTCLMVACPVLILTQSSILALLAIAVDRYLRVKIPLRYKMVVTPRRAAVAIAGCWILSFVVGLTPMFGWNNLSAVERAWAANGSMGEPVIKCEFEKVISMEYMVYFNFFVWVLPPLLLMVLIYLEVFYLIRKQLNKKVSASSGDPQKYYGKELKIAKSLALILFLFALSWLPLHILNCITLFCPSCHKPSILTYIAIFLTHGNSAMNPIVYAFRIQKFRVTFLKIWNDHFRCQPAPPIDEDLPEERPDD

[2] = target: T1, Adenosine receptor A1 (Homo sapiens); test: Effect on dissociation binding rate constant of [3H]-NECA to human adenosine A1 receptor expressed in CHO cells at 1 uM after 45 mins by scintillation spectrometry analysis relative to control; assay type: cell-based
[3] = target: T1, Adenosine receptor A1 (Homo sapiens); test: Binding affinity to human adenosine A1 receptor expressed in CHO cells assessed as fold Ki shift of CCPA at 10 uM after 90 mins by [3H]-CCPA displacement assay relative to control; assay type: cell-based
[4] = target: T1, Adenosine receptor A1 (Homo sapiens); test: Binding affinity to human adenosine A1 receptor expressed in CHO cells assessed as fold Bmax shift of [3H]-CCPA at 10 uM after 90 mins by [3H]-CCPA binding assay relative to control; assay type: cell-based
[5] = Displacement of [3H]-ZM241385 from human adenosine A2 receptor expressed in CHO cells at 10 uM after 120 mins by scintillation counting; assay type: cell-based
[6] = target: T1, Adenosine receptor A1 (Homo sapiens); test: Positive allosteric enhancement of human cloned adenosine A1 receptor expressed in CHO cells assessed as inhibition of forskolin-induced cAMP accumulation at 100 nM using [3H]-cAMP by scintillation counting relative to control in presence of 1 pM of CCPA; assay type: functional, cell-based
[7] = target: T1, Adenosine receptor A1 (Homo sapiens); test: Displacement of [3H]DPCPX from human adenosine A1 receptor expressed in CHO cells at 10 uM after 120 mins by scintillation counting; assay type: cell-based
[8] = target: T2, Adenosine receptor A3 (Homo sapiens) (UniProt P0DMS8); test: Displacement of [3H]-MRE-3008-F20 from human adenosine A3 receptor expressed in CHO cells at 10 uM after 120 mins by scintillation counting; assay type: cell-based
T2 sequence (whole entry): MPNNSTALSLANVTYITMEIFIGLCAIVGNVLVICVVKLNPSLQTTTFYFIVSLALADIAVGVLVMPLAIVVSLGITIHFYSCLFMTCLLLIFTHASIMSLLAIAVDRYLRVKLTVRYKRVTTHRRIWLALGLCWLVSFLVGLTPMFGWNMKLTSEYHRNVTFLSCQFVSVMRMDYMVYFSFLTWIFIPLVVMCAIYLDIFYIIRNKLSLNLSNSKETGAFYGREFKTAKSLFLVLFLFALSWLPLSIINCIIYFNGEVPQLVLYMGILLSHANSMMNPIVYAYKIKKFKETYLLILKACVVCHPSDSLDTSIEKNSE

[9] = target: T1, Adenosine receptor A1 (Homo sapiens); test: Increase of [3H]-NECA affinity to human adenosine A1 receptor expressed in CHO cells at 1 uM after 45 mins by scintillation spectrometry analysis relative to control; assay type: cell-based
[10] = tested on: Mus musculus; test: Antinociceptive effect in CD1 mouse assessed as inhibition of formalin-induced pain behavior in paw at 0.3 mg/kg, ip administered 15 mins before formalin challenge measured up to 45 mins relative to control; assay type: functional
[11] = target: T1, Adenosine receptor A1 (Homo sapiens); test: Ratio of PD81723 to compound for positive allosteric enhancement of human cloned adenosine A1 receptor expressed in CHO cells assessed as inhibition of forskolin-induced cAMP accumulation at 10 uM using [3H]-cAMP by scintillation counting; assay type: functional, cell-based
[12] = target: T1, Adenosine receptor A1 (Homo sapiens); test: Positive allosteric enhancement of human cloned adenosine A1 receptor expressed in CHO cells assessed as inhibition of forskolin-induced cAMP accumulation at 10 uM using [3H]-cAMP by scintillation counting relative to control; assay type: functional, cell-based
[13] = tested on: Mus musculus; test: Antinociceptive effect in CD1 mouse assessed as inhibition of formalin-induced pain behavior in paw at 3 mg/kg, ip administered 15 mins before formalin challenge measured up to 45 mins relative to control; assay type: functional

Cc1sc(N)c(C(=O)c2cccc(C(F)(F)F)c2)c1C
Activity [1]: inactive | Activity [2]: inactive | fold change (FC) [3]: 1.4 | fold change (FC) [4]: 1.3 | inhibition [5]: < 10% | inhibition [6]: 21% | inhibition [7]: < 10% | inhibition [8]: < 10% | Activity [9]: inactive

Nc1sc(-c2ccc(Cl)cc2)c(Cc2ccc(Cl)cc2)c1C(=O)c1ccc(Cl)cc1
inhibition in vivo at 0.3 mg/kg [10]: 49% | Activity [1]: inactive | Ratio [11]: 3 | fold change (FC) [2]: 2.5 | fold change (FC) [3]: 11.7 | fold change (FC) [4]: 11 | inhibition [12]: 81% | inhibition [5]: < 10% | inhibition [6]: 84% | inhibition [7]: < 10% | inhibition [8]: < 10% | fold change (FC) [9]: 2.3 | inhibition in vivo at 3 mg/kg [13]: 82%
